Consider six molecules from patent US12187662B2, “FOXM1 inhibitor compositions and methods of using the same” (The Board of Trustees of the University of Illinois, priority 2018, dated 2025).

One data set concerns MCF7 cells. Description: Cell proliferation assay (WST-1), MCF7. The conditions noted are these: for IC50: Homo sapiens. The data set is classed as cell-based, human. The method, then:
(§1) All cells were tested for mycoplasma using Real-Time PCR Mycoplasma Detection Kit (Akron Biotech, Boca Raton, FL).
(§2) All assays were performed in triplicate.
In general terms: Tetrazolium assays rely on reduction of a dye to a coloured formazan, in cell work by metabolically active cells.

The test system of data set [1] is FOXM1 target genes in MCF7 cells. Kind of data set: FOXM1 target gene expression by qRT-PCR, MCF7. Particulars: MCF7, 24 h, at IC50 concentration. The data set is classed as cell-based, human. How it is done:
(§3) RNA was extracted from cells and expression of different genes was monitored by qRT-PCR. Assays were run in triplicate. Values are mean±SEM. *, p<0.05; **, p<0.01; ***, p<0.001. RNA isolation and real-time PCR Total RNA was isolated using TRIzol (Invitrogen) and reverse transcribed using […] reverse transcriptase (New England BioLabs). Real-time PCR was performed using SYBRgreen PCR Master Mix (Roche) as described (Bergamaschi et al., Breast Cancer Res., 2014, 16:436). Relative mRNA levels of genes were normalized to the housekeeping gene 36B4, and fold change calculated relative to the vehicle treated samples. Results are the average±SD from at least two independent experiments carried out in triplicate. Primer sequences for the genes studied were obtained from the Harvard Primer Bank. Sequences are available on their website.
On the technique in general: Real-time PCR tracks product formation cycle by cycle.

The test system of data set [2] is DT22 triple negative human breast tumor xenografts. Kind of data set: DT22 triple negative breast tumor xenografts in NSG mice. The class given is in vivo, mouse. Particulars: for Tumor growth in vivo, low doses: 5 or 10 mg/kg s.c. every second or third day; for Growth of DT22-Luc xenograft tumors, low doses: NB-115 s.c. daily 2 or 6 mg/kg, NB-63 s.c. daily 20 mg/kg until day 20, then 10 mg/kg every other day; for Animal body weight: same low-dose regimens as tumor study (FIG. 14B). The method, then:
In vivo breast cancer xenograft studies For examination of the growth of triple-negative DT22 breast tumors, intact female NOD/SCID-gamma (NSG) mice were used. DT-22 cells (1×10^6 cells/mouse) were injected s.c. into the right axial mammary gland. Mice received s.c. injection or oral gavage daily or every second or third day, as indicated, with vehicle or FOXM1 inhibitor compound, and tumor growth was monitored over time.

The nature of data set [3]: Pharmacokinetic studies in mice after single s.c. or oral dose. The conditions noted are these: for half-life / AUC(0-t): female, CD-1, mouse, plasma; for Blood levels after oral administration / Blood levels after s.c. injection: doses of FIGS. 6A-6B.
Description: For s.c. injection, each compound was dissolved in DMSO and then mixed with corn oil for a total injection volume of 100 μL (10% DSMO+90% corn oil) per mouse. For oral gavage, compounds were administered in a 200 μL formulation of 9/0.5/0.5/90 parts of PEG400/Tween80/Povidone/0.5% Carboxymethylcellulose. […] Compounds were quantified by LC-MS/MS at the University of Illinois Metabolomics Core Facility. The data were fitted to a non-compartment model.
Data set [4] relates to FOXM1 target genes in DT22 cells. Kind of data set: FOXM1 target gene expression by qRT-PCR, DT22. Particulars: DT22, 24 h, at IC50 concentration. The class given is cell-based, human.
Text: as §3, with “Real-time PCR was performed using SYBRgreen PCR Master Mix (Roche) as described (Bergamaschi et al., Breast Cancer Res., 2014, 16:436).” left out

In the next data set the test system is DT22 cells. Kind of data set: Cell proliferation assay (WST-1), DT22. Particulars: Homo sapiens, DT-22, inhibition of cell proliferation. The class given is cell-based, human. The method, then: as §1, §2
A further data set addresses T1, FOXM1 protein (Homo sapiens, UniProt Q08050).
T1 construct: a terbium donor was attached to purified full length FOXM1 through a streptavidin-biotin linker
T1 sequence (Q08050 1-763): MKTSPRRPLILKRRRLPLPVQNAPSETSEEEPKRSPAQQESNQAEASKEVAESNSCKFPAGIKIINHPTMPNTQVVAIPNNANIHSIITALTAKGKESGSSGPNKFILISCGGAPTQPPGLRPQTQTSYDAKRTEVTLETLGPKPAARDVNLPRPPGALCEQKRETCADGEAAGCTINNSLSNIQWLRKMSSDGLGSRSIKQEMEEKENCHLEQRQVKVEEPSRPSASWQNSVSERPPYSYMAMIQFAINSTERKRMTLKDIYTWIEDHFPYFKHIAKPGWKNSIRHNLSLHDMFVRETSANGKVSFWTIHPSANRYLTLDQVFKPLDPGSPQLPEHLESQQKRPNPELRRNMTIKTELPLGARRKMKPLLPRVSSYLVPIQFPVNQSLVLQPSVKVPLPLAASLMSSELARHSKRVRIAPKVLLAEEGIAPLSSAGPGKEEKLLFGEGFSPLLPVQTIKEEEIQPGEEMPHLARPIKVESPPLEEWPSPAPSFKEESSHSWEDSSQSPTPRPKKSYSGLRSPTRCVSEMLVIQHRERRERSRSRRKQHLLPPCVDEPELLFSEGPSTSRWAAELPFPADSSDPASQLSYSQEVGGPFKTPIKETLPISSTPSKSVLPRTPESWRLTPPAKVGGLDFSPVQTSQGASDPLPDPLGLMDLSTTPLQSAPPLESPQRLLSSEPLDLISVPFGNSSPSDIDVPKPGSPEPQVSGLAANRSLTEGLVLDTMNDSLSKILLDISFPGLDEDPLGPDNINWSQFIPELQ
Description: Competitive binding of inhibitors to FOXM1 by tr-FRET (Fl-NB-72 probe). The conditions noted are these: tr-FRET competition with Fl-NB-72; Ki calculated from IC50 (Cheng-Prusoff). How it is done: Competitive binding assays of FOXM1 inhibitor binding to FOXM1 by tr-FRET were conducted. All tr-FRET experiments used FRET buffer (20 mM Tris, pH 7.5, 50 mM NaCl, 0.01% NP-40 detergent, 10% glycerol) with 0.3 mg/ml ovalbumin and 0.1 mM butylated hydroxy-anisole added fresh daily. Solutions of the protein, fluorescent probe and inhibitor dilutions were prepared at 3× the final concentrations, the final dilution taking place as they were mixed together on the microtiter plate.
Final concentrations were 10^-5M to 10^-9M, with the last point being buffer only, no inhibitor. Fluorescein-NB-72 (Fl-NB-72) was prepared at 1 mM in DMF and stored at −20° C. It was diluted into plain FRET buffer to give 100 nM in the assay.
Incubations were done in duplicate on black Molecular Devices 96-well microtiter plates. […] To this were added 5 μL of the inhibitor dilutions, mixed and incubated, in the dark, at room temperature, for 1 h. […] Diffusion-enhanced FRET was determined by a parallel incubation without biotin-FOXM1 and subtracted as a background signal. Graphs were prepared using Graph Pad/Prism 4.

The next data set has as its system breast cancer cell lines. Kind of data set: Proliferation of breast cancer cell lines (panel, line not specified). The class given is cell-based, human. The conditions noted are these: cell line not specified or several lines. How it is done: as §1, §2
The subject of the next data set is MDA-MB-231 cells. Description: Cell proliferation assay (WST-1), MDA-MB-231. The data set is classed as cell-based, human. Particulars: Homo sapiens, MDA-MB-231; inhibition of cell proliferation; read-out: IC50 MDA-MB-231. How it is done: as §1, §2
In data set [5] the test system is tamoxifen-resistant MCF7 breast cancer cells. Description: Proliferation of tamoxifen-resistant MCF7 cells. The data set is classed as cell-based, human. The conditions noted are these: 6 days. The method, then: Values are mean±SD of three separate assays. Cell proliferation assay WST-1 assay (Roche, Basel, Switzerland) was used to quantify cell viability as described (Gong et al., Mol. Cell Endocrinol., 2016, 437:190-200). Absorbance was measured at 450 nm using a VICTOR X5 PerkinElmer 2030 Multilabel Plate Reader. All assays were performed in triplicate.

The mark [6] stands for this setting: sc, 40 mg/kg, PK s.c. AUC0-48, mice, 40 mg/kg s.c.
Setting [7] is: MCF7, inhibition of cell proliferation, read-out: IC50 MCF7.

Entries after “also recorded” stand apart in the source; their conditions may differ. Where two headings read alike, the source gives them in different places.

For the molecule `CC[N+](C)(CC)CCCCCCOc1ccc(C(c2ccc(OCCCCCC[N+](C)(CC)CC)cc2)=C2C3C[C@H]4C[C@@H](C3)C[C@H]2C4)cc1` [NB-115, 6-(4-(((5r,7r)-adamantan-2-ylidene)(4-((6-(diethyl(methyl)-λ^4-azaneyl)hexyl)oxy)phenyl)methyl)phenoxy)-N,N-diethyl-N-methylhexan-1-aminium diiodide], in the data set with MCF7 cells (MCF7, read-out: IC50 MCF7), the IC50 turned out to be 1100 nM. Also, in [1], the “Expression of ATF3 (gene suppressed by FOXM1)” value is listed as “increased” and the “Expression of FOXM1 stimulated target genes (FOXM1C, AURKB, CCNB1, PLK1)” value is reported as “significantly reduced”. Besides, in data set [2], the “Tumor growth in vivo, low doses” value is on record as “greatly suppress tumor growth”; the “Growth of DT22-Luc xenograft tumors, low doses” value is on record as “suppress the growth; also recorded: effective in suppressing the growth”; the Animal body weight entry is listed as “do not affect; also recorded: little impact”. The half-life in data set [3] (sc) was 25 to 40 h. The AUC(0-t) in [3] (setting [6]) was 746 µM·h. Moreover, in data set [4], the “Expression of ATF3 (gene suppressed by FOXM1)” value is listed as “increased” and the “Expression of FOXM1 stimulated target genes (FOXM1C, AURKB, CCNB1, PLK1)” value was “significantly reduced”.
`c1cc(C(=C2C3CC4CC(C3)CC2C4)c2ccc(OCCCCCCN3CCCC3)cc2)ccc1OCCCCCCN1CCCC1` [NB-65, 1,1′-((((((5r,7r)-adamantan-2-ylidene)methylene)bis(4,1-phenylene))bis(oxy))bis(hexane-6,1-diyl))dipyrrolidine]: the IC50 with MCF7 cells (setting [7]) was 800 nM; in the data set with DT22 cells, 1000 nM. Also, the Ki on FOXM1 protein was 190 nM. The “IC50 for inhibition of proliferation of breast cancer cell lines” value with breast cancer cell lines is “submicromolar”.
Regarding `CCN(CC)CCCCCCOc1ccc(C(c2ccc(OCCCCCCN(CC)CC)cc2)=C2[C@H]3C[C@@H]4C[C@@H](C[C@H]2C4)C3)cc1` [NB-51, 6,6′-(((((5r,7r)-adamantan-2-ylidene)methylene)bis(4,1-phenylene))bis(oxy))bis(N,N-diethylhexan-1-amine)], the IC50 in the data set on MCF7 cells (setting [7]) is 700 nM; in the data set with DT22 cells it was 1500 nM. In addition, in the data set on MCF7 cells (MCF-7 cells), the “Improvement in anti-proliferative activity versus monoamine NB-54” value is recorded as around 5 fold. Besides, the Ki on FOXM1 protein is 130 nM. This molecule had a half-life in [3] (po, 20 mg/kg) of 20.1 h. In addition, the AUC(0-t) was 1.8 µM·h in data set [3] (po, 20 mg/kg, PK p.o. AUC0-48, mice, 20 mg/kg p.o. (footnote *)) and 4.7 µM·h in data set [3] (sc, 20 mg/kg, PK s.c. AUC0-48, mice, 20 mg/kg s.c. (footnote *)).
Regarding `C[N+]1(CCCCCCOc2ccc(C(=C3C4CC5CC(C4)CC3C5)c3ccc(OCCCCCC[N+]4(C)CCCC4)cc3)cc2)CCCC1` [NB-68, 1,1′-((((((5r,7r)-adamantan-2-ylidene)methylene)bis(4,1-phenylene))bis(oxy))bis(hexane-6,1-diyl))bis(1-methylpyrrolidin-1-ium) diiodide], the IC50 was determined as 1700 nM with MDA-MB-231 cells, 800 nM in the data set on MCF7 cells (setting [7]) and 700 nM in the data set with DT22 cells. Besides, on FOXM1 protein, the Ki was 51 nM. Besides, the “Tumor growth in vivo, low doses” value in data set [2] is “greatly suppress tumor growth”. In addition, the “Growth of DT22 tumor xenografts” value in [2] (s.c., 20 mg/kg every other day for first 10 days then 10 mg/kg every other day) is “greatly suppress tumor growth”. Further, the half-life in data set [3] (po, 60 mg/kg) is 18.5 h; in data set [3] (sc) it was 25 to 40 h; in data set [3] (sc, 60 mg/kg), 109 h. Also, the AUC(0-t) in [3] (po, 60 mg/kg, PK p.o. AUC0-48, mice, 60 mg/kg p.o.) came to 0.18 µM·h; in data set [3] (sc, 60 mg/kg, PK s.c. AUC0-48, mice, 60 mg/kg s.c.), 289 µM·h. Further, the “Blood levels after oral administration” value in [3] (mice) is reported as “very low levels”. Moreover, the “Blood levels after s.c. injection” value in data set [3] (mice, s.c.) was “very high blood levels”.
Take `CC/C(=C(\c1ccc(O)cc1)c1ccc(OCCN(C)C)cc1)c1ccccc1` [trans-hydroxytamoxifen, reference compound]: the “Effect on proliferation of tamoxifen-resistant MCF7 cells” value in data set [5] is listed as “weakly stimulated”.
For the molecule `C[N+]1(CCCCCCOc2ccc(C(c3ccc(Cl)cc3)=C3C4C[C@H]5C[C@@H](C4)C[C@H]3C5)cc2)CCCC1` [NB-63], in the data set with MCF7 cells (setting [7]), the IC50 came out at 5500 nM. In the data set on DT22 cells, this molecule came in with an IC50 of 6000 nM. Further, the Ki on FOXM1 protein is 76 nM. Also, in data set [2], the “Tumor growth in vivo, low doses” value is listed as “greatly suppress tumor growth”; the “Growth of DT22-Luc xenograft tumors, low doses” value was “suppress the growth; also recorded: effective in suppressing the growth”; the Animal body weight result is recorded as “do not affect; also recorded: little impact”. The same molecule yielded a half-life in data set [3] (sc) of 25 to 40 h. In addition, the AUC(0-t) in data set [3] (setting [6]) was 160 µM·h. In data set [3] (mice, 40 mg/kg p.o.), the “PK p.o. AUC0-48” value is “too low to measure”. Moreover, the “Blood levels after oral administration” value in data set [3] (mice) is on record as “very low levels”. Further, in data set [3] (mice, s.c.), the “AUC after s.c. administration relative to NB-55” value is recorded as “approximately 3 fold” and the “Blood levels after s.c. injection” value is “very high blood levels”.

In general, IC50 refers to the point on the concentration scale where inhibition reaches its midpoint. Broadly, the half-life is how long it takes for the measured level to halve. In general, AUC(0-t) refers to the area under the concentration-time curve up to a stated or last time point. Low readings indicate less exposure, high ones more exposure. As a reminder, the Ki is the equilibrium dissociation constant of an inhibitor or competing ligand from its target.
